CSc1nc2ccccc2c(=O)[nH]1
melting point: 223 to 225 °C

S=C=Nc1cc(Cl)c(Cl)cc1Cl
melting point: 45 °C

CCOc1ccc(Br)cc1
melting point: 4 °C

O=C(O)c1c(F)c(F)c(F)c(F)c1[N+](=O)[O-]
melting point: 134 to 139 °C

Nc1nc(N)c2nc[nH]c2n1
melting point: 302 °C

Nc1nncs1
melting point: 191 °C

BrCc1sc(-c2ccccc2)nc1-c1ccccc1
melting point: 112 to 114 °C

Nc1nnc(-c2ccc([N+](=O)[O-])cc2)s1
melting point: 202 to 204 °C

CC(=O)OCC1OCC(OC(C)=O)(C2C=Nc3c2ncn(C2(OC(C)=O)COC(COC(C)=O)C2OC(C)=O)c3=O)C1OC(C)=O (stereo not drawn)
melting point: 76 °C

CCOC(=O)C1=C(C)OC(N)=C(c2nc3ccccc3s2)C1c1ccc(N(C)C)cc1 (stereo not drawn)
melting point: 215 °C

CCCCCNc1ccc(NCCCCC)c2c1C(=O)c1ccccc1C2=O
melting point: 210 °C

O=c1cc(C=C(O)C(F)(F)C(F)(F)F)[nH]c(=O)[nH]1
melting point: 278 to 281 °C

Cn1c(Br)nc(C(=O)O)c1C(=O)O
melting point: 160 °C

Cc1cc(C(=O)O)c(-c2ccccc2)o1
melting point: 145 to 147 °C

CCOC(=O)C1=NN(c2ccc(Cl)cc2Cl)C(=O)C1C(Cl)C1(Cl)C(=O)N(c2ccc(Cl)cc2Cl)N=C1C(=O)OCC (stereo not drawn)
melting point: 99 °C

C=CCc1cc(OC)c2c(c1OC)OCO2
melting point: 29.5 °C

Cc1ccc(C(O)c2ccc(C)cc2)cc1
melting point: 71 °C

CCCCCCCCCCCCCCCCC(C)CC (stereo not drawn)
melting point: 8 °C

CCCCCCC(C)OC(=O)COc1nc(F)c(Cl)c(N)c1Cl (stereo not drawn)
melting point: 59 °C

Cc1nc(C)c(C(=O)O)s1
melting point: 233 to 235 °C

CCNc1ccc2c(C(F)(F)F)cc(=O)oc2c1
melting point: 158 to 159 °C

Cc1csc(C(=O)NN)c1Cl
melting point: 130 to 132 °C

CC12CCC(O)CC1CCC1C3CCC(O)(C#Cc4ccccc4)C3CCC12 (stereo not drawn)
melting point: 118 to 125 °C

Clc1nc(Cl)nc(Cl)n1
melting point: 154 °C

N#Cc1ccc2c(c1)N(CCCN1CCC(O)CC1)c1ccccc1S2
melting point: 116 °C

CCCCCCCCCCCCC#CC#CCCCCCCCCC(=O)O
melting point: 64 °C

O=Cc1cccc(NS(=O)(=O)c2ccccc2)c1
melting point: 104 to 108 °C

O=C(O)C(Cc1ccc([N+](=O)[O-])cc1)c1ccccc1 (stereo not drawn)
melting point: 152 °C

COc1cc2c(c(O)c1OC)C(C)NCC2 (stereo not drawn)
melting point: 160 °C

NC(=O)c1ccc(F)c(C(F)(F)F)c1
melting point: 84.5 °C

Cc1ccc2nc(C)c(C)nc2c1
melting point: 93 °C

COc1ccc(-n2c(S)nnc2-c2ccc(OC(F)(F)F)cc2)cc1
melting point: 178 to 180 °C

N=C(N)N[C@@H](Cc1ccccc1)C(=O)O
melting point: 250 to 253 °C

Cc1c(CO)cnn1-c1ccc(F)cc1
melting point: 120 to 121 °C

OCc1cc(CO)cc(OCc2cc(COc3cc(CO)cc(CO)c3)cc(COc3cc(CO)cc(CO)c3)c2)c1
melting point: 144 °C

Cc1c(C)c(O)c(C)c(C)c1O
melting point: 233 °C

CCOC(=O)c1cnc(C(F)(F)F)nc1Cl
melting point: 36 to 37 °C

O=C(Cl)OCC1=Cc2ccccc2S1(=O)=O
melting point: 77 °C

CCCCCCCCCCCC(=O)OOC(=O)CCCCCCCCCCC
melting point: 53 to 57 °C

CC1=C(CCO)SC2=Nc3nc(C)ncc3CN21
melting point: 229 °C

O=C(O)C(F)(F)C(F)(F)C(F)(F)C(F)(F)C(F)(F)C(F)(F)C(F)(F)C(F)(F)C(F)(F)C(F)(F)F
melting point: 97.9 to 100 °C

N=C1NC(=N)c2ccccc21
melting point: 190 °C

C[C@@H]1C(=O)[C@H](C)[C@@H](c2ccc(Cl)cc2)O[C@H]1c1ccc(Cl)cc1
melting point: 190 °C

O=C1CC(=O)NC(=O)N1
melting point: 248 °C

CN(O)C(=O)Cc1ccc(OCc2ccccc2)cc1
melting point: 96 °C

CCOc1cc2c(cc1OCC)C(CC(=O)O)NCC2 (stereo not drawn)
melting point: 259 to 260 °C

C=C(Br)c1ccccc1
melting point: -44 °C

CC(C)(C)Oc1ncc(Br)c(OC(C)(C)C)n1
melting point: 60 °C

N[C@@H](Cc1ccc(F)cc1)C(=O)O
melting point: 253 °C

O=C1c2ccccc2S(=O)(=O)N1CCCCN1CCN(c2ncccn2)CC1
melting point: 137 °C

NC(=O)c1cc(F)ccc1F
melting point: 114 to 116 °C

O=[N+]([O-])c1cccc(C=NNc2ccccc2)c1
melting point: 123 °C

COc1cc(/C=C/C(=O)CC(=O)/C=C/c2ccc(O)c(OC)c2)ccc1O
melting point: 183 °C

FC(F)(F)CCl
melting point: -106 °C

COc1ccc(-n2c(SC)nc3ccccc3c2=O)cc1
melting point: 154 to 156 °C

O=C=Nc1ccccc1[N+](=O)[O-]
melting point: 41 °C

Cc1cccc(C)c1N(Cn1cccn1)C(=O)CCl
melting point: 85 °C

Brc1n[nH]c(Br)c1Br
melting point: 190 to 192 °C

COc1cc(NCc2ccc3nc(N)nc(N)c3c2C)cc(OC)c1OC
melting point: 216 °C

CN(C(=O)C(F)(F)C(F)(F)C(F)(F)C(F)(F)C(F)(F)C(F)(F)C(F)(F)C(F)(F)F)C1CCCCC1
melting point: 57 °C

CC12CCC3C(CCC4CC5(CCC43C)OCCO5)C1CCC2O (stereo not drawn)
melting point: 212 °C

ClC1CC2CCC1C2 (stereo not drawn)
melting point: -5 °C

CC(=O)Nc1ncc([N+](=O)[O-])s1
melting point: 264 °C

COC(=O)c1cc2ccccc2c(OC(=O)c2ccccc2C)c1C(=O)OC
melting point: 138 to 140 °C

Cc1nc(NC(=O)NS(=O)(=O)c2cccs2)nc(C)c1C
melting point: 188 to 189 °C

O=C(O)c1cccc2c1-c1ccccc1C2
melting point: 192 to 194 °C

CC(=O)OC1CC2C(C)C(=O)C3(C(O)CC4C5(C)CCCC4(C(O)OC5)C13)C2O (stereo not drawn)
melting point: 220 °C

O=c1[nH]cc(C(F)(F)F)cc1[N+](=O)[O-]
melting point: 189 to 190 °C

O=c1n(-c2ccccc2)c(=O)n2n1C1OC3CCC1C32 (stereo not drawn)
melting point: 144 °C

O=C1NC(=O)C(=NNc2ccccc2)C(=O)N1
melting point: 309 to 310 °C

CC(=O)OCN1C(=O)NC(c2ccccc2)(c2ccccc2)C1=O
melting point: 158 °C

N#CCC(=O)OCc1ccccc1
melting point: 28 °C

CCOC(=O)C(F)(F)C(F)(F)F
melting point: 75.5 °C

O=C(O)c1cccc(N2CCCCC2)n1
melting point: 98 to 101 °C

CCCCCCCC/C=C\CCCCCCCC#N
melting point: -1 °C

O=[N+]([O-])c1cc(C(O)Cc2ccc3ccccc3n2)ccc1C(O)Cc1ccc2ccccc2n1 (stereo not drawn)
melting point: 172 °C

O=[N+]([O-])c1cc2nccnc2cc1[N+](=O)[O-]
melting point: 188 to 191 °C

O=[N+]([O-])C=Cc1ccccc1C(F)(F)F
melting point: 60 to 62 °C

O=C(O)c1ccc(C(F)(F)F)nc1
melting point: 192 °C

Cc1cc([N+](=O)[O-])cnc1Br
melting point: 57 °C

c1ccc(N2CSc3nnc(-c4cccnc4)n3C2)cc1
melting point: 214 °C

Nc1ccnc(Br)c1
melting point: 98 °C

CC(S)C(=O)NCC(=O)O (stereo not drawn)
melting point: 96 °C

Cc1ccccc1C1=Cc2ccccc2C2(OCCO2)O1
melting point: 75 °C

O=C(O)c1ccc(C(=O)O)o1
melting point: 342 °C

Cc1ccc2nc(O)cc(C)c2c1
melting point: 240 °C

O=C(Nc1cccnc1Cl)c1ccccc1Cl
melting point: 115 to 117 °C

CC1=CCCC1
melting point: -126 °C

Reference: a melting point compilation (Tetko et al.)
